For one assay, the system named is cordical nerve. Put plainly: Cordical nerve apoptosis induced by low level oxygen and glucose. It is filed as cell-based, Wistar rats. Particulars: for Apoptosis percentage: low level oxygen and glucose 16 h, flow cytometer, control 2.3 ± 1.2, low oxygen and glucose alone 23.8 ± 7.4, means ± SD. How it is done:
Biological Activity Experiment 9 The Inhibition Effects of Compound 1 on the Cordical Nerve Apoptosis Induced by Low Level Oxygen and Glucose
The methods of biological activity experiment 9 were carried out as follows: The cordical nerve were prepared from 12-hour old Wistar rats and cultured. See G. Y. Yang, A. L. Bentz. Reperfusion-induced injure to the blood-brain after middle cerebral artery occlusion in rats. Stroke, 1994,25:1658-1665. Serum-free DMEM medium was applied 12 days later. The preparation was incubated in low oxygen tank (95% N2+5% CO2) for 8, 16 and 24 h respectively, and then restored oxygen to normal level for another 24 h. The experiments on five groups were as follows: the control group was cultured for 14 days with normal medium; low level oxygen and glucose treated group was cultured with normal medium for 12 days, then with serum-free medium containing low level oxygen and glucose for 16 h and with normal oxygen level for another 24 h; compound 1 treated group was cultured in serum-free medium containing low level oxygen and glucose for 16 h and with normal oxygen level for another 24 h, then added respectively different concentrations of compound 1 (0.1, 1.0 and 10 umol.L^−1). As to the method for detecting apoptosis by the electron microscopy and flow cytometer, refer to C.Du, R.Hu, C. A. Csernansky, et al. Very delayed infarction after mild focal cerebral ischemia: a role for apoptosis. J.Cereb.Flow Metab., 1996,16:195-201; M.Chopp, Y.Li, N.Jiang, et al. Antibodies against adhesion molecules reduced apoptosis after transient middle artery occlusion in rat brain. J.Cereb.Flow Metab., 1996,16:578-584.

The subject of assay [1] is outward potassium currents of rat tail arterial SMCs. Put plainly: Whole cell recording of outward potassium currents in rat tail arterial SMCs. It counts as cell-based, Wistar rats. Particulars: outward potassium current amplitude before compound application, same cells; X ± SD n = 5. From the text: Biological activity experiments 6. The effects of novel compounds on potassium currents in isolated arterial vascular smooth muscle cells (SMCs).
The outward currents were, elicited in rat tail arterial SMCs by superfusing extracellular solution under whole cell recording configuration that the depolarizing pulse were applied from −30 mV to +100 mV with the holding potential of −40 mV in 100 ms, 10 mV clamp steps, a frequency of 5 KHz. The compounds were applied in the bath at the concentrations of 100 μmol L^−1. The amplitude of the outward potassium currents was recorded before and after compound application Values were expressed as means±SD. Statistical significance between two groups was evaluated by student's t-test for paired data * P<0.05 **P<0.01 vs control.
1. Preparation of single smooth muscle cells from rat tail arteries: Male Wistar rats (200-250 g) were killed by exsanguination. The tail artery was dissected out and transferred into cold physiological salt solution (PSS) of the following composition (in mM): NaCl 118.3, KCl 4.7, KH2PO4 1.2, MgSO4 1.2, NaHCO3 25.0, CaCl2 2.5, EDTA 0.026 and Glucose 5.0 pH7.4. With the use of a dissecting microscope, the connective tissues were removed and the artery was cut open longitudinally. Endothelium was removed carefully with a cotton swab then the artery was cut into segments with 1 mm long and placed in 4° C. the extracellular solution containing (in mM) NaCl 130, KCl 5, MgCl2 1.2, HEPES 10, Glucose 10, pH7.2 for 20 min. After this incubation, the medium was changed to enzyme solution which was composed of collagenase I (1 mg ml^−1), papain (5 mg ml^−) and bovine serum albumin (2 mg ml^−1). The tissues, were incubated in this solution for 40 min, and then rinsed three times triturated using a fire-polished Pasteur pipette until the medium turned cloudily. The cell suspension was stored in the refrigerator at 4° C.
3. Whole cell recordings: A bath dish with the smooth muscle cells (SMCs) attached and superfused with the extracellular solution at a flow rate of 2 ml min^−1 was mounted onto the stage of an inverted-phase contrast microscope. The microelectrodes having a resistance of (5-8 MΩ) were made from boroscilicate thin-wall glass capillaries, using an automatic multiple-stage, electronic puller (PP830 Japan) and then heat-polished. After establishing a high resistance seal, the patch membrane was disrupted by negative pressure. A commercial patch clamp amplifier (Axon 200B) was used to generate and apply voltages and sample current signals from the cell.

In the case of `CC(C)NC(C)(C)C(C)C` [compound 1, N-(1-methylethyl)-2,3-dimethyl-2-butylamine], the Apoptosis percentage in the assay with cordical nerve (0.1 umol · L^−1) is 17.6 ± 5.8%; in the assay on cordical nerve (1 umol · L^−1) it was 13.9 ± 5.2 %; in the assay with cordical nerve (10 umol · L^−1), 10.8 ± 4.1 %. Moreover, in the assay on cordical nerve (10 umol.L^−1, low level oxygen and glucose), the “apoptotic changes of cordical nerve cells under electron microscopy (in words)” value is reported as “the above mentioned changes were hardly observed”. Besides, the “Currents, Control (before compound application)” value in assay [1] is 0.41 ± 0.08 nA.

The record behind these values is US7560473B2 (Institute of Pharmacology and Toxicology Academy of …, priority 2001, dated 2009).
